The results in this text go back to PMC13376213, “Systematic discovery of motif-based interactions of the auxiliary domains of USP family deubiquitinases” (Nature Communications, 2026).

Ends that are not written are not given here.

Assay [1] concerns the target T1, USP33 DUSP2 domain (Homo sapiens, UniProt Q8TEY7).
T1 construct: USP33_DUSP2; Q8TEY7; DUSP2; 806; 921; 6xHis-GST (N, cleaved yes); made in house; host or cells: Escherichia coli BL21-Gold (DE3)
T1 sequence (Q8TEY7 with tags, fused parts or gaps): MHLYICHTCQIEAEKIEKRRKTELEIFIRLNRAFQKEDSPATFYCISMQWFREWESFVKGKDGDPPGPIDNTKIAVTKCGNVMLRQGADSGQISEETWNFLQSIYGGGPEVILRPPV
The experiment in a line: FP-monitored affinity measurements, USP33 DUSP2. The following applies: competitive FP: unlabeled peptide (N-acetylated, C-amidated) against protein with 10 nM FITC-labeled peptide; 50 mM phosphate pH 7.4, room temperature; technical triplicate; read-out: KD, USP33 DUSP2. It is filed as binding. The method, then:
(§1) Proteins were expressed in Escherichia coli (E.coli) BL21-Gold (DE3) bacteria. The cDNAs encoding N-terminal 6-histidine-glutathione S-transferase tagged (6xHis-GST), 6xHis-tagged or GST-tagged protein domains in pETM33, pETM11, pGEX6P1 expression vectors respectively, were obtained from Genescript or kindly provided by MRC-PPU (Suppl. Data 1) The bacteria were transformed with the plasmid and grew at 37 °C in 2YT (5 g/L NaCl, 16 g/L tryptone and 10 g/L yeast extract) supplemented with Kanamycin (30 μg/mL) until reaching an OD600 of 0.7. Protein expression was induced with 0.3 mM isopropyl β-D-1 thiogalactopyranoside (IPTG) for 18 h at 18 °C while shaking. For zinc-finger domains, 50 μM of ZnSO4 was added during expression. The bacterial cultures were pelleted for 15 minutes at 4000 x g at 4 °C and stored at −20 °C until purification. The pellets were resuspended in lysis buffer (1× phosphate-buffered saline (PBS), 0.5 % Triton-X, 5 mM MgCl2, 10 μg/mL lysozyme, cOmplete^TM EDTA-free protease inhibitor cocktail (Roche), 10 μg/mL DNAseI) and incubated for 1 h shaking at 4 °C. […] The supernatant was incubated with glutathione (GSH) Sepharose (Cytiva) or Ni2+ Sepharose (Cytiva) for 1 h at 4 °C while shaking. The beads with the bound protein were washed with 1x PBS and eluted with 10 mM reduced glutathione in 50 mM Tris pH 8.0. For fluorescence polarization experiments, the proteins were not eluted from the beads, and the 6xHis-GST tag was cleaved overnight on GSH Sepharose beads at 4 °C while shaking with PreScission Protease in cleavage buffer (50 mM Tris pH 7.5, 150 mM NaCl, 1 mM DTT). The sample containing the cleaved domain was separated from the tag and protease and buffer-exchanged to 50 mM sodium phosphate buffer pH 7.4 with 1 mM DTT using a PD-10 desalting column (Cytiva). The purity and size of the proteins were analyzed by SDS-PAGE electrophoresis.
The measurements were performed at room temperature in a non-binding black half area 96-well plate (Corning) with a total volume of 50 μL per well. Peptides were obtained from GeneCust (France) with >95% purity. FITC-labeled peptides (N-terminally FITC-labeled without spacer and C-terminally amidated) were dissolved in dimethyl sulfoxide (DMSO), and unlabeled peptides (N-terminally acetylated and C-terminally amidated) were dissolved in 50 mM phosphate buffer pH 7.4. Saturation measurements were performed using a serial dilution of the protein domains in phosphate buffer (25 μL) and the addition of 10 nM FITC-labeled peptide (in phosphate buffer supplemented with 2 mM DTT) (25 μL). […] All measurements were performed in three technical replicates. The data were analyzed using GraphPad Prism version 9.2.0 for MacOS (GraphPad Software, San Diego, California USA, www.graphpad.com). The saturation curves were fitted to the quadratic equation, and the displacement curves were fitted to a sigmoidal dose-response equation as described previously.

Assay [2] addresses T2, USP20 DUSP2 domain (Homo sapiens, UniProt Q9Y2K6).
T2 construct: USP20_DUSP2; Q9Y2K6; DUSP2; 776; 894; 6xHis-GST (N, cleaved yes); made in house; host or cells: Escherichia coli BL21-Gold (DE3)
As to the kind of experiment: Peptide SPOT array, USP20 DUSP2.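 For all read-outs here: GST-tagged domain probed overnight at 4 °C on peptides made on cellulose membranes, bound protein detected via HRP-coupled anti-GST antibody, spot intensity from image analysis.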 It is filed as binding. Particulars: for Average: peptide SPOT array intensity minus background, mean of 2 replicas; for Average / Normalize to peptide with higher intensity %: sheet S5A; for Normalize to higher intensity (%) / Normalize to peptide with higher intensity %: peptide SPOT array; for Normalize to higher intensity (%): USP20 DUSP2, average normalised to the highest intensity (ARNTL2 = 100); for Normalize to peptide with higher intensity %: average normalized to the peptide with highest intensity (ARNTL2 = 100).
Method: (§2) Peptides were synthesized on cellulose membranes with standard Fluoroenylmethylox-ycarbonyl (Fmoc) chemistry using a Multipep automated synthesizer at INTAVIS (Tübingen, Germany) or ordered from JPT (PepSpots). The membranes were activated with methanol for 5 min and washed three times for 5 min with TBST (50 mM Tris, 137 mM NaCl, 2.7 mM KCl, pH 8.0, 0.05% Tween-20). The membranes were incubated with blocking buffer (5% skim milk powder in TBST) for 2 h at room temperature while shaking. The membranes were incubated with the GST-tagged protein diluted at the desired concentration in blocking buffer and incubated overnight at 4 °C while shaking. The membrane was rinsed 3 times with TBST and incubated with HRP-conjugated anti-GST antibody (Cytiva, RPN1236; 1:3000 dilution) in blocking buffer for 1 h at 4 °C while shaking. […] The images were analyzed in Fiji (ImageJ2 version 2.9.0).

For assay [3], the target named is T1, USP33 DUSP2 domain. The experiment in a line: Peptide SPOT array, USP33 DUSP2. Particulars: average normalised to the highest intensity (CCDC88B = 100). It is filed as binding.
Method: as §2
In assay [4] the test system is USP auxiliary domains and full-length CYLD and USP7 (baits). As to the kind of experiment: ProP-PD selections against the HD2 library. It is filed as binding, human. Particulars: for mean_counts_% / specificity: ProP-PD peptide level. The method, then: We generated a collection of 29 USP ADs and two full-length USPs (CYLD and USP7). The collection was biased towards domains that are present in several USPs, such as zf-UBP domains, UBL domains and DUSP domains (Suppl. Data 1). We also included ADs only found in specific USPs, such as the three CAP-Gly domains of CYLD and the C-terminal domain of USP25. […] The peptide-coding regions of the phage pools were analyzed by next-generation sequencing (NGS), mapped to the corresponding proteins, and filtered for high/medium confidence ligands based on established criteria (with confidence level 4 being the highest).
as §1
The human disorderome library was used for four rounds of phage display selections. GST-tagged, 6xHis-tagged or GST-6xHis purified proteins were used as baits and GST was used as control by immobilization on a 96-well MaxiSorp plate (Nunc) overnight at 4 °C while shaking (10 μg of protein in 100 μL PBS). The wells containing the immobilized proteins were blocked with 0.5% BSA in PBS for 1 hour at 4 °C while shaking. The phage library was prepared by precipitation in 1/5th volume PEG/NaCl (20% PEG-8000 + 0.4 M NaCl), incubated for 10 min on ice, followed by centrifugation at 10,000 × g for 10 min at 4 °C and resuspended in PBS. The GST-coated wells were washed four times with 0.05% Tween 20 in PBS, and 100 μL/well phage library was added and incubated 1 h at 4 °C while shaking. The protein-coated wells were washed four times with 0.05% Tween 20 in PBS, and the phage solution from the GST-coated wells was transferred to the protein-coated wells and incubated 2 h at 4 °C while shaking. The unbound phages were removed by washing 5 times with 0.05% Tween 20 in PBS, and the bound phages were eluted with 100 μL/well log-phase E.coli OmniMAX by incubating for 30 min at 37 °C while shaking. M13KO7 helper phages (10^11 PFU/mL) were added to each well and incubated for 45 min at 37 °C while shaking. […]

Setting [5] is: bait CYLD_CAP-Gly-2 (Q9NQC7 235-307).
Where [6] appears, read: bait CYLD_CAP-Gly-1 (Q9NQC7 8-210), collapsed regions of overlapping peptides.
The mark [7] stands for this setting: bait CYLD_CAP-Gly-2 (Q9NQC7 235-307), collapsed regions of overlapping peptides.

T2 sequence (Q9Y2K6 with tags, fused parts or gaps): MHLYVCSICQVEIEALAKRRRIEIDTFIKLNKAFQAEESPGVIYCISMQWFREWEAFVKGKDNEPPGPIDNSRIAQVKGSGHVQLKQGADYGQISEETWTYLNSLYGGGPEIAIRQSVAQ

What is called Kd is a measure of binding affinity in units of concentration. As for `CC[C@H](C)[C@H](NC(=O)[C@H](Cc1ccc(O)cc1)NC(=O)[C@@H]1C[C@@H](O)CN1C(C)=O)C(=O)N1CCC[C@H]1C(=O)N[C@@H](CCSC)C(=O)N[C@@H](CC(=O)O)C(=O)N[C@@H](CC(=O)O)C(=O)N[C@@H](CC(=O)O)C(=O)N[C@@H](Cc1ccccc1)C(=O)N[C@@H](CCC(N)=O)C(=O)N[C@@H](CC(C)C)C(=O)N[C@@H](CCCNC(=N)N)C(=O)N[C@@H](CO)C(=O)N[C@@H](Cc1ccccc1)C(=O)N[C@@H](CC(=O)O)C(=O)N[C@@H](CCC(N)=O)C(=O)N[C@@H](CC(C)C)C(=O)N[C@@H](CO)C(N)=O` [HyPro-HIF1A564-581], the Kd in assay [1] amounted to 7 µM.
Take ATLATAWSLVEAAGLD [BAHCC1_2]: in assay [2], the Average is -15.5033, the “Normalize to higher intensity (%)” value is given as -8.681% and the “Normalize to peptide with higher intensity %” value is -8.681%. Further, the “Normalize to higher intensity (%)” value in assay [3] was -24.9243%.
Consider Ac-PYIPMDKDFQLRSFDQLS-NH2 [D570K], for which, in assay [1], the Kd came out at 10 µM.
In assay [4] (setting [5]), DLLSVAEMVALVEQRA [FBXO46_168-183] returned a mean_counts_% of 16.99% and a specificity of 1.00.
For EAGLALRTDLQGEAQI [ZNF783], in assay [2], the Average is -16.4483, the “Normalize to higher intensity (%)” value is reported as -9.211% and the “Normalize to peptide with higher intensity %” value is listed as -9.211%. Besides, the “Normalize to higher intensity (%)” value in assay [3] stood at 68.6966%.
Regarding EEDVLAFNLQHLATLA [BAHCC1_1], in assay [2], the Average is recorded as -22.4783, the “Normalize to higher intensity (%)” value is given as -12.59% and the “Normalize to peptide with higher intensity %” value was -12.5871%. Moreover, the “Normalize to higher intensity (%)” value in assay [3] worked out at 29.5039%.
The like results for EGTEVAFPLLVSHRSQ [EMSY] were, in that order, -0.4433, -0.2483%, -0.2483% and 1.956%.
Turning to EKEDSCFELLHRAVGH [ASB8], in assay [2], the Average was -31.4033, the “Normalize to higher intensity (%)” value is on record as -17.58% and the “Normalize to peptide with higher intensity %” value was -17.5849%. For the same compound, in assay [3], the “Normalize to higher intensity (%)” value is 10.516%.
For GGLTDLSSLIQAGQQF [SGTB], in assay [2], the Average stood at 27.0767, the “Normalize to higher intensity (%)” value amounted to 15.16% and the “Normalize to peptide with higher intensity %” value was 15.1621%. Besides, the “Normalize to higher intensity (%)” value in assay [3] is recorded as 19.7113%.
Regarding KEQLSSFDISPREKLI [ARNTL2], in assay [2], the Average stood at 178.582, the “Normalize to higher intensity (%)” value was 100% and the “Normalize to peptide with higher intensity %” value came out at 100%. Moreover, the “Normalize to higher intensity (%)” value in assay [3] is 36.7483%.
KGHSRDFVLRRDLSAT [ZIC5]: in assay [2], the Average amounted to 72.2767, the “Normalize to higher intensity (%)” value stood at 40.47% and the “Normalize to peptide with higher intensity %” value is 40.4726%. In assay [3], the “Normalize to higher intensity (%)” value is 49.982%.
For KMGSDEFDISPRISKQ [MGA] the same measures were 138.987, 77.83%, 77.8281% and 61.0297%.
For LRHPSGWWLVENEDRQ [NOXO1] the same measures were 44.4667, 24.9%, 24.8999% and 27.858%.
On to MNFNVWNIKEMLSIPS [IHO1], for which, in assay [2], the Average is listed as -8.778, the “Normalize to higher intensity (%)” value was -4.916% and the “Normalize to peptide with higher intensity %” value is -4.916%. For the same compound, the “Normalize to higher intensity (%)” value in assay [3] was -0.2743%.
On to NGLDIAPRYFGFIKAC [SLC17A1], for which, in assay [2], the Average amounted to 7.792, the “Normalize to higher intensity (%)” value was 4.363% and the “Normalize to peptide with higher intensity %” value is given as 4.363%. Besides, in assay [3], the “Normalize to higher intensity (%)” value worked out at 22.3834%.
As to PDAELQRMEQEAERRR [RBM25_558-573], the specificity in assay [4] (bait CYLD_CAP-Gly-1 (Q9NQC7 8-210)) was 0.95. In assay [4] (setting [6]), this compound returned a max_confidence of 2 and a max_specificity of 0.95.
Regarding PYIPMDDDFQARSFDQLS [L574A], in assay [1], the Kd was more than 200 µM.
Turning to QPIDNSFDIQSRDCIS [MAP3K4], in assay [2], the Average came to 40.0217, the “Normalize to higher intensity (%)” value amounted to 22.41% and the “Normalize to peptide with higher intensity %” value came to 22.4108%. Also, the “Normalize to higher intensity (%)” value in assay [3] came out at 25.9612%.
For RLQKDIWDIQMRSKSL [GBP2] the same measures were 51.5267, 28.85%, 28.8533% and 42.7122%.
SQQDAQEFLRALMDLL: in assay [4] (setting [5]), the mean_counts_% is listed as 30.84% and the specificity was 0.87. In addition, in assay [4] (setting [7]), the max_specificity is listed as 0.87.
In assay [4] (setting [5]), TWWDRYEEFVGLNEVR displayed a mean_counts_% of 3.88% and a specificity of 0.28. Further, the max_specificity in assay [4] (setting [7]) is 0.28.
As for VAEMVALVEQRA, the max_specificity in assay [4] (setting [7]) amounted to 1.00.
In assay [4] (setting [5]), VAEMVALVEQRAALAL came in with a mean_counts_% of 0.0147% and a specificity of 0.48.
As for VKHPRFFALFEKHGGY [PPIP5K1], in assay [2], the Average was -28.3983, the “Normalize to higher intensity (%)” value is given as -15.9% and the “Normalize to peptide with higher intensity %” value is -15.9022%. In addition, in assay [3], the “Normalize to higher intensity (%)” value was -36.2833%.
In turn, WRFEQLEWRSILLDMA registered a max_specificity in assay [4] (setting [7]) of 0.60.
